Laboratory results published in paper PMC6344527, “Toxicity and possible mechanisms of action of honokiol from Magnolia denudata seeds against four mosquito species” (Scientific Reports, 2019).
In brackets after ≈: the same amount, converted by molar mass. Where two headings read alike, the source gives them in different places.

Experiments:
[1] = test system: third-instar larvae of insecticide-susceptible Aedes aegypti; assay: contact mortality bioassay, 24 h exposure; format: in vivo; conditions: for LC50: Aedes aegypti, 24 h, read-out: LC50 (mg/L) (95% CI)
Protocol: (§1) A contact mortality bioassay[25] was used to evaluate the toxicity of all compounds against third-instar larvae of the four mosquito species. Each test compound in methanol was suspended in DW with Triton X-100 (20 µL/L). Groups of 20 mosquito larvae were separately placed into paper cups (270 mL) containing each compound solution (250 mL). […] Negative controls consisted of a methanol–Triton X-100 solution in DW.
(§2) Treated and control (methanol–Triton X-100 solution only) larvae were maintained under the same conditions as those used for colony maintenance without providing food. Larval mortalities were determined 24 h post-treatment. […] All treatments were performed three times using 20 larvae per replicate.
(§3) The concentration of the test compounds required to produce 50% AChE inhibitory activity (IC50) was determined using the SAS 9.13 program (Cary: SAS Institute; 2014). Concentration-mortality data were subjected to probit analysis using the SAS 9.13 program. […] Statistical analyses were performed using the SAS 9.13 program. Multiple linear regression and correlation analysis were performed using the SPSS 24 program (Armonk: IBM Corp.; 2016).

[2] = test system: third-instar larvae of insecticide-susceptible Culex pipiens pallens; assay: contact mortality bioassay, 24 h exposure; format: in vivo; conditions: for LC50: Culex pipiens, 24 h, read-out: LC50 (mg/L) (95% CI)
Protocol: as §1, §2, §3

[3] = test system: third-instar Ae. aegypti larvae; assay: light microscopy analysis of treated larvae; format: in vivo, Aedes aegypti; conditions: honokiol 6.5 mg/L or magnolol 25 mg/L (LC50), 24 h
Protocol: At 24 h post-treatment, the untreated and treated larvae were placed on a microscope slide at room temperature for light microscopy. Morphological observations were made with an EZ4 HD stereo microscope (35×) equipped with an Integrated 3.0 Mega-Pixel CMOS camera (Leica Microsystems, Heerbrugg, Switzerland). All experiments were performed in duplicate, with 20 mosquito larvae used in each replicate. More than 10 live larvae from the control and treated groups were randomly collected and used for analysis.

[4] = test system: midgut and anal gills of third-instar Ae. aegypti larvae; assay: transmission electron microscopy analysis of midgut and anal gills; format: in vivo, Aedes aegypti; conditions: honokiol 6.5 mg/L or magnolol 25 mg/L (LC50), 24 h
Protocol: At 24 h post-treatment, the midgut and anal gills of the untreated and treated Ae. aegypti larvae were fixed in Karnovsky’s fixative (2% (v/v) glutaraldehyde and 2% (v/v) paraformaldehyde in 0.05 M sodium cacodylate buffer (pH 7.2)) at 4 °C in darkness for 2–4 h and were washed three times with the same buffer. The specimens were post-fixed with 1% (w/v) osmium tetroxide in the same buffer at 4 °C for 2 h and washed with DW three times. The post-fixed specimens were then dehydrated through a graded series of ethanol with increasing concentrations up to 100% for 15 min. The specimens were further treated with propylene oxide twice each for 15 min as a transitional fluid and embedded in Spurr’s resin[77]. Ultrathin sections (approximately 50 nm thickness) were cut with a UC6 ultramicrotome (Leica Microsystems, Wetzlar, Germany) and stained in 2% aqueous uranyl acetate for 7 min at room temperature as well as with Reynolds lead citrate[78] for 7 min. The sections were mounted on copper grids, and micrographs were obtained from a CM120 transmission electron microscope (Philips Electronics, Amsterdam, Netherlands) at 80 kV. Images were captured using a MegaView III digital camera (Olympus-SIS, Lakewood, CO, USA). Observations were taken of 12 larvae via TEM.

AaAQP4 mRNA = assay: real-time qRT-PCR of target gene expression; format: in vivo, Aedes aegypti; conditions: fold higher than the control group; anal gills; honokiol 6.5 mg/L or magnolol 25 mg/L, 24 h
Protocol: (§4) Real-time qRT-PCR with SYBR Green dye was performed to determine whether honokiol and magnolol treatment affected the expression levels of three target genes, AaAQP4, AaV-type H^+-ATPase and AeCS1, in Ae. aegypti. […] Total RNA was extracted from the anal gills (for AaAQP4 and AaV-type H^+-ATPase) and midgut (for AeCS1) of 50 larvae using an RNeasy Mini Kit (Qiagen, Valencia, CA, USA) according to the manufacturer’s instructions. Residual genomic DNA was removed using RQ1 RNase-Free DNase (Promega, Fitchburg, WI, USA), and 1 μg of total RNA from each sample was used for complementary DNA (cDNA) synthesis with an oligo(dT) primer (Invitrogen, Grand Island, NY, USA) according to the protocol of the SuperScript III Reverse Transcriptase Kit. Real-time qRT-PCR was performed in 96-well plates using the StepOne Plus Real-Time PCR System (Applied Biosystems, Foster, CA, USA). Each reaction mixture consisted of 10 μL of the SYBR Green PCR Master Mix Kit (Applied Biosystems, Warrington, Cheshire, UK), 2 μL of the forward and reverse primers (10 pmol each), 1 μL of cDNA (25 ng) and diethylpyrocarbonate-treated water for a final volume of 20 μL. The oligonucleotide PCR primer pairs are listed in Table 9 and were purchased from Cosmo Genetech (Seoul). The cycling program included an initial hold at 95 °C for 5 min, followed by 35 cycles at 95 °C for 30 s, at 58 °C for 30 s, at 72 °C for 1 min, and an extension at 72 °C for 5 min using an Applied Bioscience Thermal Cycler. The mRNA expression levels of the target genes were normalized to the mRNA expression level of the housekeeping gene Aarps7 and analyzed by the 2^−ΔΔCT method using the Applied Biosystems StepOne Software v2.1 and DataAssist Software. The results are expressed as the means ± SEs of duplicate samples from three independent experiments.

AaV-type H^+-ATPase mRNA = assay: real-time qRT-PCR of target gene expression; format: in vivo, Aedes aegypti; conditions: fold higher than the control group; anal gills; honokiol 6.5 mg/L or magnolol 25 mg/L, 24 h
Protocol: as §4

AeCS1 mRNA = assay: real-time qRT-PCR of target gene expression; format: in vivo, Aedes aegypti; conditions: compared to control larvae; midgut; honokiol 6.5 mg/L or magnolol 25 mg/L, 24 h
Protocol: as §4

[5] = Table 7, structure-activity series, 24 h exposure
[6] = Table 6, structure-activity series, 24 h exposure
[7] = Table 3, 24 h exposure, listed as Pure honokiol
[8] = Table 2, KS-CP strain, 24 h exposure, listed as Pure honokiol

Structure (SMILES): C=CCc1ccc(O)c(-c2cc(CC=C)ccc2O)c1 [Magnolol, magnolol]
- LC50 [1, 5]: 25.7 mg/L (≈ 96.5 µM)
- LC90 (mg/L) (95% CI) [1, 5]: 83.14 (64.68–124.4) mg/L
- LC50 [2, 6]: 26 mg/L (≈ 97.6 µM)
- LC90 (mg/L) (95% CI) [2, 6]: 80.42 (63.28–117.4) mg/L
- anal gill region (light microscopy) [3]: completely damaged outer cuticle membranes with undistinguishable anal gills with no internal body fluid
- morphology of the whole body (light microscopy) [3]: shrunken body with no distinct abdominal segments
- histopathological effects on anal gills (TEM) [4]: damaged outer membranes of thick cuticles, which led to internal cytoplasmic destruction
- histopathological effects on midgut (TEM) [4]: complete disappearance of nuclei as well as cytoplasmic contents
- AaAQP4 mRNA expression levels (AaAQP4 mRNA): did not affect
- AaV-type H^+-ATPase mRNA expression levels (AaV-type H^+-ATPase mRNA): ~14 fold
- AeCS1 mRNA levels (AeCS1 mRNA): up to 503%

Structure (SMILES): C=CCc1ccc(O)c(-c2ccc(O)c(CC=C)c2)c1 [Honokiol, 2-(4-hydroxy-3-prop-2-enyl-phenyl)-4-prop-2-enyl-phenol]
- LC50 ([1]; Table 3, 24 h exposure): 6.51 mg/L (≈ 24.4 µM)
- LC50 [1, 5]: 6.51 mg/L (≈ 24.4 µM)
- LC90 (mg/L) (95% CI) ([1]; Table 3, 24 h exposure, listed as Natural honokiol): 22.59 (17.70–34.15) mg/L
- LC50 (mg/L) (95% CI) [1, 7]: 6.48 (5.11–7.90) mg/L
- LC90 (mg/L) (95% CI) [1, 7]: 23.84 (18.41–37.36) mg/L
- times less toxic than temephos ([1]; from 24 h LC50 values): 521 times
- LC50 ([2]; Table 2, KS-CP strain, 24 h exposure): 6.32 mg/L (≈ 23.7 µM)
- LC50 [2, 6]: 6.32 mg/L (≈ 23.7 µM)
- times more toxic than the structural isomer magnolol ([2]; Cx. pipiens pallens and Ae. aegypti larvae): approximately 4 times
- LC90 (mg/L) (95% CI) ([2]; Table 2, KS-CP strain, 24 h exposure, listed as Natural honokiol): 18.78 (15.30–25.99) mg/L
- LC50 (mg/L) (95% CI) [2, 8]: 6.38 (5.01–7.78) mg/L
- LC90 (mg/L) (95% CI) [2, 8]: 19.30 (15.64–27.01) mg/L
- LC90 (mg/L) (95% CI) [2, 6]: 18.78 (15.30–25.99) mg/L
- times less toxic than temephos ([2]; from 24 h LC50 values): 390 times
- anal gill region (light microscopy) [3]: the anal gill from one side was swollen and reduced from its normal length, and the other one was completely damaged
- morphology of the whole body (light microscopy) [3]: severely damaged, with an indistinct appearance of the thorax, midgut, and abdominal regions
- histopathological effects on anal gills (TEM) [4]: cytoplasmic disruption with damaged anal gill cells
- histopathological effects on midgut (TEM) [4]: devastated cellular material and extruded masses in the cytoplasm
- AaAQP4 mRNA expression levels (AaAQP4 mRNA): approximately 18 fold
- AaV-type H^+-ATPase mRNA expression levels (AaV-type H^+-ATPase mRNA): approximately 16 fold
- AeCS1 mRNA levels (AeCS1 mRNA): 82%
